# Data: ChEMBL document CHEMBL3217567, “Differential activation of soluble guanylate cyclase by a series of aryl disulfanyl dinitrate esters” (Medchemcomm, 2014)
# Legend:
# [1] = species on record: Rattus norvegicus; assay: (§1) Activation of Sprague-Dawley rat soluble guanylate cyclase after 10 mins in presence of cysteine
# [2] = species on record: Rattus norvegicus; assay: Activation of Sprague-Dawley rat soluble guanylate cyclase after 10 mins in presence of cysteine relative to GTN
# [3] = species on record: Rattus norvegicus; assay: Activation of Sprague-Dawley rat soluble guanylate cyclase after 10 mins relative to GTN
# [4] = Activation of Sprague-Dawley rat soluble guanylate cyclase after 10 mins
# [5] = as §1
# [6] = target: Soluble guanylate cyclase (Homo sapiens) (UniProt Q02153+O75343+P33402+Q02108); assay: Activation of soluble guanylate cyclase (unknown origin) assessed as apparent initial rate of oxidation of oxyhemoglobin in presence of cysteine relative to GTN; format: protein-complex assay
SMILES,Activity [1],Emax [2],Efficacy [3],EC50 [4],EC50 [5],Ratio [6]
O=[N+]([O-])OCC(CSSc1ccc(Cl)cc1)O[N+](=O)[O-] (stereo not drawn),Dose-dependent effect,195%,–,–,–,–
O=[N+]([O-])OCC(CSSc1ccc(F)cc1)O[N+](=O)[O-] (stereo not drawn),Dose-dependent effect,192%,–,–,–,–
Cc1ccc(SSCC(CO[N+](=O)[O-])O[N+](=O)[O-])cc1 (stereo not drawn),Dose-dependent effect,279%,114%,170 µM,–,–
O=[N+]([O-])OCC(CSSc1ccc(Br)cc1)O[N+](=O)[O-] (stereo not drawn),Dose-dependent effect,218%,60%,40 µM,–,–
O=[N+]([O-])OCC(CO[N+](=O)[O-])O[N+](=O)[O-] [NITROGLYCERIN],–,–,–,–,200 µM,–
COc1ccc(SSCC(CO[N+](=O)[O-])O[N+](=O)[O-])cc1 (stereo not drawn),Dose-dependent effect,245%,–,–,–,2
O=[N+]([O-])OCC(CSSc1ccccc1)O[N+](=O)[O-] (stereo not drawn),Dose-dependent effect,201%,–,–,–,–
